Key:
[1] = tested on: PBMC of subjects previously immunized with MMR-II vaccine; test: IL-4 supernatant cytokine response (ELISA) to measles virus and synthetic measles peptides; type: cell-based, human; details: for Median secretion value IL-4: stimulated minus control cells
Protocol: (§1) To evaluate the immunogenicity of measles-derived peptides, 281 of these subjects (age 12 to 18 years) were studied.
(§2) Cryopreserved PBMC were used to measure cytokine responses to measles-derived peptides. We thawed cryopreserved PBMC at a concentration of 1×10^7 cells/mL using standard protocol. The vials were rapidly thawed in a 37° C. water bath and then washed twice with 10× volume of complete RPMI 1640 media supplemented with 10% FCS at 700 rpm for 5 minutes. The final cell pellet was resuspended in complete RPMI media containing penicillin-streptomycin (100 U/mL) and supplemented with 5% normal human AB sera (Ervin Sci., Santa Ana, Calif.). For IFN-γ determination, thawed PBMC were cultured at a concentration of 2×10^5 in RPMI containing 5% normal human AB sera with or without measles peptides (10 μg/well) and MV (positive control) at a moi of 0.5 for 6 days. For IL-4 determination in cell culture supernatants, we cultured thawed PBMC at a concentration of 4×10^5 in RPMI media, supplemented with 5% normal human AB sera. Cells were cultured in the presence of 2 μg/mL of IL-4 receptor antibody (R&D Systems, Minneapolis, Minn.) (Ekerfelt, et al., J. Immunol. Methods 260:55-67, 2002) with or without synthetic measles-derived peptides (10 μg/well) and MV (positive control) at a moi of 0.1 for 6 days. Cell culture supernatants were collected in a volume of 150 μl/well for both IFN-γ and IL-4 and were frozen at […] until assayed. The culture supernatants were assayed using a standard ELISA protocol (OptiEtA Human IFN-γ and IL-4, PharMingen, San Diego, Calif.) at a dilution of 1:1 in PBS containing 10% FCS. ELISA plates (Immulon-4, DYNEX Technologies Inc, Chantilly, Va.) were coated with capture IFN-γ or IL-4 mAb and incubated overnight at 4° C. The antibody-coated plates were incubated with diluted supernatant samples for 2 hours at room temperature followed by incubation with biotinylated mouse anti-human IFN-γor IL-4 conjugated to avidin-horseradish peroxidase for 1 hour at room temperature. The absorbance of the product was read using a microplate reader (Molecular Devices, Sunnyvale, Calif.) at 450 nm. The IFN-γ and IL-4 concentration of test samples was calculated by reference to the standard curve. Unstimulated and MV-stimulated secretion measurements for IFN-γ were performed in triplicate, while all other secretion measurements for both IFN-γ and IL-4 were performed in duplicate. Individual-specific values were then summarized by taking means of the duplicate or triplicate values. Mean background levels of IFN-γ and IL-4 cytokine production in cultures not stimulated with measles peptides or MV was subtracted from the mean antigen-induced responses to produce “corrected” secretion values. Negative corrected values indicate that the unstimulated secretion levels were, on average, higher than the stimulated secretion levels.
(§3) Two criteria were established to define positive responses for secreted IFN-γ and IL-4 cytokines using ELISA.

[2] = tested on: PBMC of subjects previously immunized with MMR-II vaccine; test: IFN-γ supernatant cytokine response (ELISA) to measles virus and synthetic measles peptides; type: cell-based, human; details: for Median secretion value IFN-γ: stimulated minus control cells
Protocol: as §1, §2, §3

[3] = 281 subjects, stimulated cells minus unstimulated cells

For SAGKVSSTLASELG [MV-N], the “IL-4 % Response (>10 pg/mL)” value ([1]; 281 subjects, peptides 10 μg/well, MV moi 0.1, 6 days) was 23.1%, the “IL-4 Median level” value [1, 3] was 2.8 pg/mL and the “Median secretion value IL-4” value ([1]; All other HLA-DRB1 alleles) was -0.5 pg/mL. The “Median secretion value IL-4” value ([1]; HLA-DRB1 allele *0101) was 4.3 pg/mL, the “Median secretion value IL-4” value ([1]; HLA-DRB1 allele *0102) was 4.6 pg/mL and the “Median secretion value IL-4” value ([1]; HLA-DRB1 allele *0103) was 1.3 pg/mL. For the same sequence, the “Median secretion value IL-4” value ([1]; HLA-DRB1 allele *0301) was 2.8 pg/mL, the “Median secretion value IL-4” value ([1]; HLA-DRB1 allele *0401) was 4.3 pg/mL and the “Median secretion value IL-4” value ([1]; HLA-DRB1 allele *0402) was -1.0 pg/mL. The “Median secretion value IL-4” value ([1]; HLA-DRB1 allele *0404) was 0.0 pg/mL, the “Median secretion value IL-4” value ([1]; HLA-DRB1 allele *0407) was 4.6 pg/mL and the “Median secretion value IL-4” value ([1]; HLA-DRB1 allele *0701) was 1.7 pg/mL. For the same sequence, the “Median secretion value IL-4” value ([1]; HLA-DRB1 allele *0801) was 1.7 pg/mL, the “Median secretion value IL-4” value ([1]; HLA-DRB1 allele *0901) was -1.6 pg/mL and the “Median secretion value IL-4” value ([1]; HLA-DRB1 allele *1001) was 2.1 pg/mL. The “Median secretion value IL-4” value ([1]; HLA-DRB1 allele *1101) was 4.4 pg/mL, the “Median secretion value IL-4” value ([1]; HLA-DRB1 allele *1103) was 15.5 pg/mL and the “Median secretion value IL-4” value ([1]; HLA-DRB1 allele *1104) was 4.4 pg/mL. For the same sequence, the “Median secretion value IL-4” value ([1]; HLA-DRB1 allele *1201) was 5.4 pg/mL, the “Median secretion value IL-4” value ([1]; HLA-DRB1 allele *1301) was 3.6 pg/mL and the “Median secretion value IL-4” value ([1]; HLA-DRB1 allele *1302) was 2.2 pg/mL. For the same sequence, the “Median secretion value IL-4” value ([1]; HLA-DRB1 allele *1303) was -12.9 pg/mL, the “Median secretion value IL-4” value ([1]; HLA-DRB1 allele *1401) was 3.7 pg/mL and the “Median secretion value IL-4” value ([1]; HLA-DRB1 allele *1501) was 3.2 pg/mL. For the same sequence, the “Median secretion value IL-4” value ([1]; HLA-DRB1 allele *03011) was 1.7 pg/mL, the “Median secretion value IL-4” value ([1]; Overall (281)) was 2.8 pg/mL and the “MV-P IL-4 responders in whom peptide-specific IL-4 responses were also detected” value ([1]; among the 54 subjects who responded to the MV-P peptide) was “half”. The “MV IL-4 responders who also responded to the peptide” value ([1]; among the 143 subjects with IL-4 production from MV-stimulated PBMC) was 28.7%, the “IFN-γ % Response (>20 pg/mL)” value ([2]; 281 subjects, peptides 10 μg/well, MV moi 0.5, 6 days) was 15.3% and the “IFN-γ Median level” value [2, 3] was 1.9 pg/mL. For the same sequence, the “Median secretion value IFN-γ” value ([2]; All other HLA-DRB1 alleles) was 4.1 pg/mL, the “Median secretion value IFN-γ” value ([2]; HLA-DRB1 allele *0101) was -1.8 pg/mL and the “Median secretion value IFN-γ” value ([2]; HLA-DRB1 allele *0102) was 7.6 pg/mL. For the same sequence, the “Median secretion value IFN-γ” value ([2]; HLA-DRB1 allele *0103) was 2.4 pg/mL, the “Median secretion value IFN-γ” value ([2]; HLA-DRB1 allele *0301) was 1.8 pg/mL and the “Median secretion value IFN-γ” value ([2]; HLA-DRB1 allele *0401) was -0.7 pg/mL. The “Median secretion value IFN-γ” value ([2]; HLA-DRB1 allele *0402) was 10.6 pg/mL, the “Median secretion value IFN-γ” value ([2]; HLA-DRB1 allele *0404) was 2.8 pg/mL and the “Median secretion value IFN-γ” value ([2]; HLA-DRB1 allele *0407) was 8.4 pg/mL. For the same sequence, the “Median secretion value IFN-γ” value ([2]; HLA-DRB1 allele *0701) was -1.1 pg/mL, the “Median secretion value IFN-γ” value ([2]; HLA-DRB1 allele *0801) was 4.1 pg/mL and the “Median secretion value IFN-γ” value ([2]; HLA-DRB1 allele *0901) was 3.1 pg/mL. For the same sequence, the “Median secretion value IFN-γ” value ([2]; HLA-DRB1 allele *1001) was -1.8 pg/mL, the “Median secretion value IFN-γ” value ([2]; HLA-DRB1 allele *1101) was -4.4 pg/mL and the “Median secretion value IFN-γ” value ([2]; HLA-DRB1 allele *1103) was 3.0 pg/mL. The “Median secretion value IFN-γ” value ([2]; HLA-DRB1 allele *1104) was 3.1 pg/mL, the “Median secretion value IFN-γ” value ([2]; HLA-DRB1 allele *1201) was -4.5 pg/mL and the “Median secretion value IFN-γ” value ([2]; HLA-DRB1 allele *1301) was 2.2 pg/mL. The “Median secretion value IFN-γ” value ([2]; HLA-DRB1 allele *1302) was -1.9 pg/mL, the “Median secretion value IFN-γ” value ([2]; HLA-DRB1 allele *1303) was 13.1 pg/mL and the “Median secretion value IFN-γ” value ([2]; HLA-DRB1 allele *1401) was 0.2 pg/mL. For the same sequence, the “Median secretion value IFN-γ” value ([2]; HLA-DRB1 allele *1501) was 4.1 pg/mL, the “Median secretion value IFN-γ” value ([2]; HLA-DRB1 allele *03011) was 9.1 pg/mL and the “Median secretion value IFN-γ” value ([2]; Overall (281)) was 1.9 pg/mL. For the same sequence, the “MV-P IFN-γ responders who also produced IFN-γ to the peptide” value ([2]; among the 157 subjects who responded to the MV-P peptide) was 21% and the “MV IFN-γ responders who also produced IFN-γ to the peptide” value ([2]; among the 185 subjects who responded to MV) was 21.1%.
